{"source": "patent US6831196B2", "about": "“Urokinase inhibitors” (Curacyte AG, priority 2000, dated 2004)", "note": "Where a name gives a salt, the structure may show the parent alone.", "data": [{"biological_target": "sc-urokinase (Homo sapiens, UniProt P00749)", "assay": "Inhibiting urokinase: chromogenic substrate Bz-βAla-Gly-Arg-pNA, Ki by Dixon", "format": "biochemical", "settings": "25° C., pH 8.0, mean of at least three determinations", "source_text": "Inhibiting urokinase with selected compounds in which Y=amidino\nDetermining the inhibitory effect:\nThe Ki values are the mean of at least three determinations.", "units": {"Ki": "µM"}, "values": [{"smiles": "CC(C)(C)OC(=O)N[C@H](COCc1ccccc1)C(=O)NCC(=O)NCc1cccc(C(=N)N)c1", "note": "[Boc, D, CH2—O—Bz, H, CH2, 3]", "Ki": "> 1000"}, {"smiles": "CC(C)(C)OC(=O)N[C@@H](CO)C(=O)NCC(=O)NCc1ccc(C(=N)N)cc1", "note": "[Boc, L, CH2—OH, H, CH2, 4]", "Ki": 23}, {"smiles": "N=C(N)c1cccc(CNC(=O)CNC(=O)[C@@H](COCc2ccccc2)NS(=O)(=O)Cc2ccccc2)c1", "note": "[Bz—SO2, D, CH2—O—Bz, H, CH2, 3]", "Ki": "> 1000"}, {"smiles": "N=C(N)c1ccc(CNC(=O)CNC(=O)[C@@H](COCc2ccccc2)NS(=O)(=O)Cc2ccccc2)cc1", "note": "[Bz—SO2, D, CH2—O—Bz, H, CH2, 4, Benzylsulfonyl-D-Ser(Bz)-Gly-4-amidinobenzyl-amide×TFA]", "Ki": 0.84}, {"smiles": "CC(C)COC(=O)OC[C@@H](NS(=O)(=O)Cc1ccccc1)C(=O)NCC(=O)NCc1ccc(C(=N)N)cc1", "note": "[Bz—SO2, D, CH2—O—COO-iBu, H, CH2, 4, Benzylsulfonyl-D-Ser(COO-isobutyl)-Gly-4-amidino-benzylamide×HCl]", "Ki": 0.5}, {"smiles": "COC(=O)OC[C@@H](NS(=O)(=O)Cc1ccccc1)C(=O)NCC(=O)NCc1ccc(C(=N)N)cc1", "note": "[Bz—SO2, D, CH2—O—COO—CH3, H, CH2, 4]", "Ki": 0.39}, {"smiles": "N=C(N)c1ccc(CNC(=O)CNC(=O)[C@@H](CO)NS(=O)(=O)CC2CCCCC2)cc1", "note": "[CMe—SO2, D, CH2—OH, H, CH2, 4]", "Ki": 0.048}, {"smiles": "N=C(N)c1ccc(CNC(=O)CNC(=O)[C@H](N)CO)cc1", "note": "[H, D, CH2—OH, H, CH2, 4]", "Ki": 12}, {"smiles": "N=C(N)c1cccc(CNC(=O)CNC(=O)[C@H](N)COCc2ccccc2)c1", "note": "[H, D, CH2—O—Bz, H, CH2, 3]", "Ki": "> 1000"}, {"smiles": "N=C(N)c1ccc(CNC(=O)CNC(=O)[C@@H](N)CO)cc1", "note": "[H, L, CH2—OH, H, CH2, 4]", "Ki": 21}]}]}
